Measurements published in the supplement of paper PMC10307832.

What was measured:
Assay in all cases: relative viability (nuclei count vs DMSO), 5 days (fraction); higher = more cells survive
Ibrutinib + Lapatinib = compound: C=CC(=O)N1CCC[C@@H](n2nc(-c3ccc(Oc4ccccc4)cc3)c3c(N)ncnc32)C1 [Ibrutinib] + CS(=O)(=O)CCNCc1ccc(-c2ccc3ncnc(Nc4ccc(OCc5cccc(F)c5)c(Cl)c4)c3c2)o1 [Lapatinib] (partner 2 µM)
Summary of the method: (§1)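 Medians of duplicate plates are given as relative viability. That measure is the nuclei count in treated wells divided by the count in vehicle wells. Counts were taken on 4× images of lung cancer cell lines in 1536-well plates, 5 days after pin-tool dosing the day after seeding with one drug alone or a fixed anchor-drug dose plus five library-drug doses (not always all listed) in √10 steps.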

Ibrutinib + Crizotinib = compound: C=CC(=O)N1CCC[C@@H](n2nc(-c3ccc(Oc4ccccc4)cc3)c3c(N)ncnc32)C1 [Ibrutinib] + C[C@@H](Oc1cc(-c2cnn(C3CCNCC3)c2)cnc1N)c1c(Cl)ccc(F)c1Cl [Crizotinib] (partner 1 µM)
Summary of the method: as §1

BMX-IN-1 + Linsitinib = compound: C=CC(=O)Nc1cc(-n2c(=O)ccc3cnc4ccc(-c5ccc(NS(C)(=O)=O)cc5)cc4c32)ccc1C [BMX-IN-1] + C[C@]1(O)C[C@@H](c2nc(-c3ccc4ccc(-c5ccccc5)nc4c3)c3c(N)nccn32)C1 [Linsitinib] (partner 1 µM)
Summary of the method: as §1

PAC-1 + Lapatinib = compound: C=CCc1cccc(/C=N/NC(=O)CN2CCN(Cc3ccccc3)CC2)c1O [PAC-1] + CS(=O)(=O)CCNCc1ccc(-c2ccc3ncnc(Nc4ccc(OCc5cccc(F)c5)c(Cl)c4)c3c2)o1 [Lapatinib] (partner 2 µM)
Summary of the method: as §1

SK-MES-1 showed a relative viability (Ibrutinib + Lapatinib; first compound 0.005 µM) of 0.506, a relative viability (Ibrutinib + Lapatinib; first compound 0.01581 µM) of 0.456 and a relative viability (Ibrutinib + Lapatinib; first compound 0.05 µM) of 0.461. For the same cell line, the relative viability (Ibrutinib + Lapatinib; first compound 0.1581 µM) was 0.446, the relative viability (Ibrutinib + Lapatinib; first compound 0.5 µM) was 0.441 and the relative viability (Ibrutinib + Crizotinib; first compound 0.005 µM) was 0.984. For the same cell line, the relative viability (Ibrutinib + Crizotinib; first compound 0.01581 µM) was 0.907, the relative viability (Ibrutinib + Crizotinib; first compound 0.05 µM) was 1.02 and the relative viability (Ibrutinib + Crizotinib; first compound 0.5 µM) was 0.555. For the same cell line, the relative viability (BMX-IN-1 + Linsitinib; first compound 0.02 µM) was 1.11, the relative viability (BMX-IN-1 + Linsitinib; first compound 0.2 µM) was 1.06 and the relative viability (BMX-IN-1 + Linsitinib; first compound 0.6325 µM) was 1.15. It also gave a relative viability (BMX-IN-1 + Linsitinib; first compound 2 µM) of 1.07, a relative viability (PAC-1 + Lapatinib; first compound 0.02 µM) of 0.455 and a relative viability (PAC-1 + Lapatinib; first compound 0.06325 µM) of 0.457. The relative viability (PAC-1 + Lapatinib; first compound 0.2 µM) was 0.443 and the relative viability (PAC-1 + Lapatinib; first compound 2 µM) was 0.445.
